Marks after values point to notes of the source that are not given here.
Legend:
anti-HER2-C825 = test: In vitro mixing with DOTA-PRIT BsAb followed by size-exclusion chromatography; type: binding
Protocol: In vitro Mixing of [^225Ac]Proteus-DOTA with a DOTA-PRIT BsAb, followed by In vivo Targeting Studies. […] After one week of storage of [^225Ac]Proteus-DOTA at room temperature, an in vitro mixing experiment consisting of mixing 145 μL of 6.91 mg/mL of anti-HER2-C825 (4.8 nmol of BsAb or 9.6 nmol of C825) and 90 μL of [^225Ac]Proteus-DOTA (488 nCi/8.64 nmol) for 1 h at room temperature (final volume 235 μL). As a control, 1 mg of trastuzumab (6.67 nmol) with also mixed in vitro with 90 μL of [^225Ac]Proteus-DOTA (468 nCi/8.64 nmol) in the same manner as the anti-HER2-C825. These two solutions were run separately on PD-10 size-exclusion columns pre-equilibrated with saline+1% human serum albumin, and were compared with the column elution of 90 μL (488 nCi/8.64 nmol) of [^225Ac]Proteus-DOTA only. Elution fractions were counted on the gamma-counter using an open window setting.
This was done by mixing the BsAb (˜210 kD) in slight molar excess to [^225Ac]Proteus-DOTA (9.6 nmol of C825/8.6 nmol of [^225Ac]Proteus-DOTA), followed by incubation at room temperature for 1 hour.

[1] = test system: HER2-expressing BT-474 xenografts; test: Ex vivo biodistribution of BsAb/hapten complex or hapten alone in BT-474 tumor-bearing mice; set-up: species or system athymic nude mice; settings: 4 h after injection
Protocol: The ^225Ac-Proteus-DOTA haptens were injected intravenously via the lateral tail vein and euthanized 4 hours later for organ collection and radioactivity assessment. Asterisk (*) indicates levels below the limit of detection. Two groups of nude mice with subcutaneous BT474 tumors (3 mice each) were treated with either: [^225Ac Proteus-DOTA] only (0.51 nmol/mouse; ˜30 nCi of ^225Ac/mouse) or PD10-purified [anti-HER2-C825/[^225Ac Proteus-DOTA] complex (estimate 1.79 nmol of ^225Ac Proteus-DOTA/mouse, 1.0 nmol of antibody/mouse; 100 nCi ^225Ac/mouse), and sacrificed 4 h post-injection for ex vivo biodistribution assay. The tissue samples were read in the gamma counter the following day at equilibrium.
Biodistribution Experiments.
To determine whether isolated BsAb/[^225Ac]Proteus-DOTA complexes could target tumors in vivo, a biodistribution assay was conducted after SEC purification with two groups of athymic nude mice (n=3) bearing subcutaneous HER2-expressing BT-474 xenografts. […]

[2] = test system: GPA33-expressing SW1222 xenografts; test: Anti-GPA33-DOTA-PRIT + [^225Ac]Proteus-DOTA biodistribution; settings: for Blood uptake / SW1222 tumor uptake: pretargeted with huA33-C825 + clearing agent
Protocol: Biodistribution Experiments. A treatment cycle of anti-GPA33 DOTA-PRIT consisted of three separate intravenous injections via the tail vein: 0.25 mg of huA33-C825 antibody (described in WO2016/130539) at t=−28 h, then […] of clearing agent (500 kD-dextran-DOTA-Bn(Y)) at t=−4 h, and [^225Ac]Proteus-DOTA at t=0. For ex vivo biodistribution analysis following the radiohaptens or anti-HER2-C825/[^225Ac]Proteus-DOTA, mice were euthanized by CO2(g) asphyxiation, and the tumors and selected organs were harvested, rinsed with water, air-dried, weighed, and radioassayed by gamma scintillation counting (Perkin Elmer Wallac Wizard 3″, Perkin Elmer, Waltham, Mass.). Count rates were background- and decay-corrected, converted to activities using a system calibration factor specific for the isotope, normalized to the administered activity, and expressed as average percent injected dose per gram (% ID/g)±1 standard deviation. Differences in radioactivity concentration in tumor and various tissues were analyzed by Student's unpaired t test when appropriate.
Biodistribution Studies Following In vivo Targeting with Anti-GPA33-DOTA-PRIT+[^225Ac]Proteus-DOTA. [^225Ac]Proteus-DOTA was prepared to a final specific activity of 0.20 Ci/g or 274 Ci/mol and injected into groups of animals within 24-48 hours of preparation. Animals that had received injections of huA33-C825 and clearing agent were injected with […] of [^225Ac]Proteus-DOTA that was prepared approximately 24 hours prior. The following day, animals were sacrificed for ex vivo biodistribution assessment at 24 hours post injection of [^225Ac]Proteus-DOTA in tumors and select normal tissues. A control group of non-tumor bearing animals were injected with […] of [^225Ac]Proteus-DOTA that was prepared approximately 48 hours prior, and were sacrificed 1 hour post injection of [^225Ac]Proteus-DOTA for ex vivo biodistribution assessment in normal tissues. Carcass radioactivity was not collected during this study.
A control group of healthy nude mice were injected with [^225Ac]Proteus-DOTA only (198 pmol, 1.85 kBq [50 nCi]) to evaluate normal tissue uptake of the [^225Ac]Proteus-DOTA preparation.
These mice were sacrificed 24 h p.i. of [^225Ac]Proteus-DOTA for biodistribution assay. All animals were sacrificed at 24 h p.i. for biodistribution.

[3] = 24 h p.i., n = 3, listed as [^225Ac] Proteus-DOTA

O=C([O-])CN1CCN(CC(=O)[O-])CCN(CC(=O)NCCOCCOCCOCCOCCNC(=S)Nc2ccc(CC3CN(CC(=O)[O-])CCN(CC(=O)[O-])CCN(CC(=O)[O-])CCN3CC(=O)[O-])cc2)CCN(CC(=O)[O-])CC1.[225Ac+3].[Lu+3] (stereo not shown) [[^225Ac]Proteus-DOTA]
remaining activity recovered in elution fractions between 4.6-7.1 mL (anti-HER2-C825; PD-10 size-exclusion column): 90%
recovered ^225Ac-activity eluting within the first 4.1 mL (anti-HER2-C825; PD-10 size-exclusion column after 1 h mixing at room temperature): 9.3%
uptake in all assayed tissues [1]: ≤ 2 % ID/g
tumor accumulation ([1]; BT-474 xenograft, i.v., n=3): 0.50±0.34 % ID/g
Blood uptake ([2]; 24 h p.i., n = 3): 0.94±0.26 % ID/g
SW1222 tumor uptake ([2]; 24 h p.i., n = 3): 16.71±2.95 % ID/g
Blood uptake [2, 3]: 0.94 ± 0.26^a % ID/g
SW1222 tumor uptake [2, 3]: 16.71 ± 2.95 % ID/g
Bone uptake ([2]; pretargeted, 24 h p.i.): undetectable
Tumor-to-tissue ratio, Blood ([2]; pretargeted, 24 h p.i.): 17.9 ± 4.0
Tumor-to-tissue ratio, Heart ([2]; pretargeted, 24 h p.i.): 60.4 ± 35.8
Tumor-to-tissue ratio, Kidneys ([2]; pretargeted, 24 h p.i.): 15.5 ± 4.8
Tumor-to-tissue ratio, Large Intestine ([2]; pretargeted, 24 h p.i.): 147.5 ± 90.9
Tumor-to-tissue ratio, Liver ([2]; pretargeted, 24 h p.i.): 11.9 ± 4.2
Tumor-to-tissue ratio, Lungs ([2]; pretargeted, 24 h p.i.): 24.0 ± 13.5
Tumor-to-tissue ratio, Muscle ([2]; pretargeted, 24 h p.i.): 128.6 ± 129.2
Tumor-to-tissue ratio, Small Intestine ([2]; pretargeted, 24 h p.i.): 102.3 ± 67.1
Tumor-to-tissue ratio, Spleen ([2]; pretargeted, 24 h p.i.): 31.1 ± 31.3
Tumor-to-tissue ratio, Stomach ([2]; pretargeted, 24 h p.i.): 238.8 ± 150.7
blood uptake (percent injected activity per gram of tissue) ([2]; pretargeted, 24 h p.i.): 0.94±0.26 % IA/g
kidney uptake (percent injected activity per gram of tissue) ([2]; pretargeted, 24 h p.i.): 1.08±0.55 % IA/g
liver uptake (percent injected activity per gram of tissue) ([2]; pretargeted, 24 h p.i.): 1.40±0.47 % IA/g
Bone uptake ([2]; pretargeted, 24 h p.i., n = 3): 0.00 ± 0.00 % ID/g
Heart uptake ([2]; pretargeted, 24 h p.i., n = 3): 0.28 ± 0.28 % ID/g
Kidneys uptake ([2]; pretargeted, 24 h p.i., n = 3): 1.08±0.55 % ID/g
Large Intestine uptake ([2]; pretargeted, 24 h p.i., n = 3): 0.11 ± 0.12 % ID/g
Liver uptake ([2]; pretargeted, 24 h p.i., n = 3): 1.40 ± 0.82 % ID/g
Lungs uptake ([2]; pretargeted, 24 h p.i., n = 3): 0.70 ± 0.67 % ID/g
Muscle uptake ([2]; pretargeted, 24 h p.i., n = 3): 0.13 ± 0.23 % ID/g
Small Intestine uptake ([2]; pretargeted, 24 h p.i., n = 3): 0.16 ± 0.18 % ID/g
Spleen uptake ([2]; pretargeted, 24 h p.i., n = 3): 0.54 ± 0.93 % ID/g
Stomach uptake ([2]; pretargeted, 24 h p.i., n = 3): 0.07 ± 0.08 % ID/g
Kidneys uptake ([2]; pretargeted, 24 h p.i., n = 3, listed as [^225Ac] Proteus-DOTA): 1.08 ± 0.55 % ID/g
tumor uptake (percent injected activity per gram of tissue) ([2]; pretargeted, SW1222, 24 h p.i.): 16.71±2.95 % IA/g
